The source of these data is publication PMC5354814, “In silico and in vitro drug screening identifies new therapeutic approaches for Ewing sarcoma” (Oncotarget, 2016).

Each structure is given as a SMILES string. Where two headings read alike, the source gives them in different places.

Data set [1] can be described thus: Auranofin dose tolerance studies (maximum tolerated dose). It is filed as in vivo, BALB/c mice. The text has this: These findings led us to develop and assess injectable (i.v. and i.p.) formulations of auranofin. By defining maximum tolerated dose (MTD) following i.v. and i.p. administration of solution and suspension formulations of auranofin, our intent was to evaluate auranofin alone and in combination with ganetespib at MTD in mouse xenograft studies using the more convenient i.p. route of administration. Following administration of the solution formulation of auranofin i.v. and i.p., the maximum tolerated dose was estimated at 1 mg/kg and 6 mg/kg, respectively. Following a single i.p. suspension dose of auranofin, the maximum tolerated dose was 16 mg/kg. This dose was reduced to 12 mg/kg and dose tolerance was evaluated after 5 daily doses of auranofin suspension i.p. to determine the effects of the accumulation of gold in the blood due to the slow elimination of gold. Based on the i.p. suspension dose tolerance studies, the auranofin suspension formulation and dose level of 12 mg/kg was selected for evaluation in xenograft mouse studies.
The auranofin dose tolerance and pharmacokinetics study protocols were approved by the KU-Lawrence Institutional Animal Care and Use Committee (KU-IACUC). Subchronic dose tolerance studies were conducted in BALB/c mice to support the design of EWS mouse xenograft studies. By establishing the Maximum Tolerated Dose (MTD), we defined the upper limit of doses selected for EWS mouse xenograft and in vivo pharmacokinetics studies. Mice received a single dose of auranofin solution and suspension administered by i.v. and i.p. routes of administration. Following a starting dose of 1 mg/kg, doses were escalated in subsequent mice until intolerable drug-related adverse effects were observed. MTD was defined as the maximum dose that was not associated dose-limiting adverse effects in mice. The MTD was confirmed in a group of 3 mice. Mice were continuously monitored for up to 4 hours post-dose.

Data set [2] in a line: Blood gold pharmacokinetics after i.p. auranofin suspension with ganetespib pre-treatment. It is filed as in vivo, BALB/c mice. The text has this:
As indicated previously, auranofin is a complex of gold triethylphosphine and thioglucose tetraacetate. Gold comprises 29% of auranofin by weight. Auranofin is chemically and metabolically highly unstable in solution. […] Following oral administration of ^195Au auranofin to humans, 25% of administered ^195Au appears in plasma. Further, approximately 40% of absorbed gold distributes into erythrocytes with 60% found in plasma. As a result, and consistent with the extensive literature describing auranofin pharmacokinetics in animals and humans, we characterized the pharmacokinetics of i.p. auranofin in mice by quantifying blood gold concentrations as summarized in Table 4. Peak blood gold concentrations were 12.43 μg/mL in mice receiving auranofin suspension preceded by i.v. ganetespib. […]
The single-dose […] pharmacokinetics of gold were characterized in 36 BALB/c mice following administration of a single 12 mg/kg i.p. suspension dose of auranofin. […] Whole blood aliquots of 500 μL obtained from each of the three animals per time point were assayed using a validated inductively coupled plasma mass spectrometry (ICPMS) method to quantify blood gold concentration. Mean blood gold concentrations were determined for each blood collection time point. […]

For another data set, the system named is A673 cells. Put plainly: In vivo xenograft mouse model. The protocol: To assess the antitumor activity of auranofin (using an alternative delivery approach), ganetespib and the combination treatments in vivo, we generated a xenograft nude mouse model by injecting A673 cells intramuscularly proximal to the tibia. Based on the dose tolerance and pharmacokinetic studies described above, we administered auranofin at a tolerable daily i.p. dose that achieved adequate systemic drug exposure. Auranofin was administered with a dose of 12 mg/kg through an i.p. injection once a day for 5 days per week, and ganetespib was administered with a dose of 150 mg/kg through an i.v. injection once weekly. Mice that grew palpable tumors were randomized into four groups: vehicle, auranofin-only, ganetespib-only, and the combination.
The guidelines adopted by the Institutional Animal Care and Use Committee of the University of Kansas Medical Center (KUMC-IACUC) were followed in all performed procedures. All experimental protocols were approved by KUMC-IACUC. Homozygous athymic nude (Foxn1nu/Foxn1nu) female mice at the age of 4-weeks were purchased from Jackson Laboratories. After one week, one million A673 cells in PBS (pH = 7.3) were injected into mice. The cells were injected intramuscularly proximal to the tibia and treatment started after 15 days of inoculation. Mice developing palpable tumors were divided into 4 arms and treated for up to 18 days: vehicle (20% Cremophor RH40 and 80% D5W iv and 0.5% HPMC K4M ip), auranofin (12 mg/kg i.p. injection 5 days per week), ganetespib (150 mg/kg i.v. injection once weekly), as well as auranofin and ganetespib combined. Mice were evaluated for overall health and weighed every week. When tumor size impeded mobility, mice were sacrificed and necropsies were performed. Tumors were then dissected, measured and processed for analysis. The liver, kidneys, and spleen were also snap frozen in liquid nitrogen or fixed in 10% neutral buffered formalin and paraffin embedded for toxicity studies. Tissues were then subjected to hematoxylin and eosin (H&E) staining and immunohistochemical staining. […]

Another data set concerns Salmonella. More on the design: method as in ref 18, ref 19. The settings on record: cited from earlier work.
The conditions of data set [3]: cited from earlier work; for grossly malformed fetuses: rabbits, days 6-18 of pregnancy.
In the next data set the test system is human monocytes. More on the design: method as in ref 19 (a number printed in a supplementary file, which may have a reference list of its own: not looked up in the article's list). Conditions: 0.125 µg auranofin/mL; cited from earlier work.
Another data set has as its system Rhesus monkey skin. Also noted: method as in ref 19 (a number printed in a supplementary file, which may have a reference list of its own: not looked up in the article's list). Conditions: 1.5 x 10^-4M; cited from earlier work.

In the case of `CC(=O)OC[C@H]1O[C@@H]([S-])[C@H](OC(C)=O)[C@@H](OC(C)=O)[C@@H]1OC(C)=O.CCP(CC)CC.[Au+]` [Auranofin, auranofin], the maximum tolerated dose was determined as 6 mg/kg in data set [1] (solution formulation, i.p.); 1 mg/kg in data set [1] (solution formulation, i.v.); 16 mg/kg in data set [1] (suspension, single i.p. dose). For the same molecule, the Trough gold concentration in data set [2] (24 hours following the fifth once daily i.p. dose of 12 mg/kg) was 23.9 µg/mL. Further, the Cmax in data set [2] (single i.p. 12 mg/kg auranofin suspension, ganetespib pre-treatment) worked out at 63.1 µM. Moreover, the “survival rate versus control group” value in the data set with A673 cells (auranofin 12 mg/kg i.p. 5 days per week, ganetespib 150 mg/kg i.v. once weekly, p < 0.05) is listed as “significantly increased the survival rate”. Besides, the “toxicity or adverse effects in xenograft study” value in the data set with A673 cells (auranofin 12 mg/kg i.p., ganetespib 150 mg/kg i.v.) is listed as “did not show any noticeable toxicity or adverse effects”. In addition, in the data set with Salmonella, the mutation effects entry is “no m utation effects”. Also, in data set [3] (oral 0.5, 3 and 6 mg/kg/day), the teratogenicity in rabbits result is recorded as “teratogenic potential”. Moreover, the grossly malformed fetuses is recorded as 1.9% in data set [3] (0.5 mg/kg/day (low)), 4.7% in data set [3] (3 mg/kg/day (middle)) and 15.5% in data set [3] (6 mg/kg/day (high)). In the data set on human monocytes, the “ADCC of human monocytes” value was “reduced”. In addition, the histamine release entry with Rhesus monkey skin is listed as “inhibition”.

A word on the Cmax: it is the highest concentration seen after dosing.
